US12661361B2, “Resmetirom for reducing liver volume” (Madrigal Pharmaceuticals, Inc., priority 2021, dated 2026)

What was measured:
Type in all cases: in vivo, human
[1] = tested on: adults with biopsy-confirmed NASH (NAS≥4, F1-F3) and hepatic fat fraction ≥10%; experiment: 36-week Phase 2 serial MRI-PDFF and liver biopsy study; MRI-PDFF and liver volume (LV) assessment
Description: Hepatomegaly may cause symptoms (e.g., pain) in NASH patients, and is thought to be driven primarily by high liver fat content. […] The purpose of this study was to assess the relationship between liver triglycerides as measured by MRI-PDFF and liver volume (LV) in placebo and resmetirom-treated patients.
(§1) MRI-PDFF and liver volume (LV) were assessed in, (n=117), and a NASH-cirrhotic active resmetirom treatment arm of MAESTRO-NAFLD-1 (n=73), in patients who had at least baseline and one additional serial PDFF. LV was assessed using a validated artificial intelligence model for segmenting the liver on standard MR images.
LV at baseline was elevated in non-cirrhotic and cirrhotic NASH patients relative to literature values for healthy controls and was greater than predicted even after accounting for sex and body weight. PDFF correlated with LV at baseline in non-cirrhotic (r2=0.19, p<0.001) and more weakly in cirrhotic NASH (r2=0.079, p=0.01). Reduction in LV (CFB) correlated with reduction in PDFF in placebo (r2=0.25, p=0.001) and resmetirom (r2-0.38, p<0.0001) treated patients at 12 (and 36 (not shown)) weeks (see, e.g., FIG. 1).

[2] = tested on: well-compensated NASH cirrhotic patients; experiment: MAESTRO-NAFLD-1 open label resmetirom arm in well-compensated NASH cirrhotic patients
Description: as §1
MAESTRO-NAFLD-1 is a 52-week >1200 patient Phase 3 randomized double blind placebo controlled NASH clinical trial to study safety and biomarker effects of resmetirom, a selective thyroid hormone receptor beta agonist, in NASH patients with F1-F4 fibrosis identified using non-invasive biomarkers and imaging (NCT04197479). A goal of this “real life” NASH study is to identify non-invasive markers that correlate with individual patient response to resmetirom treatment. The study includes an open label active resmetirom treatment arm in well-compensated NASH cirrhotic patients.
Eligibility required at least 3 metabolic risk factors (metabolic syndrome), and NASH cirrhosis diagnosed on liver biopsy or according to accepted criteria. The primary and key secondary end points of the cirrhotic arm include safety, relative percent reduction of MRI-PDFF (week 16), LDL cholesterol (LDL-C) (week 24), Apolipoprotein B and triglycerides, and markers of fibrosis. Patients received 80-100 mg daily dose of resmetirom for 52 weeks.
105 well-compensated NASH cirrhotic patients were enrolled in the open label arm, 2/3 confirmed by liver biopsy. Demographics include mean age 62.7 (9.0 (SD)), female 64%, BMI 35.4 (7.4), diabetes 70%, hypertension 77%, dyslipidemia >70%, mean ASCVD score 16.1%, hypothyroid 32.4%, 51% on statins. MRE kPa, 5.7 (2.1); fibroscan kPa, 24.6 (14.9), CAP, 318 (59) and mean MRI-PDFF, 8.1% (5). Stage of cirrhosis was inversely correlated with baseline PDFF. At week 52 resmetirom lowered fibroscan CAP (−42 units (p<0.0001) and kPa (−7.6 kPa, p=0.02).

[3] = tested on: noninvasively identified NASH patients; experiment: MAESTRO-NAFLD-1 52 week Phase 3, 100 mg open label (OL) non-cirrhotic NASH arm
Description: MAESTRO-NASH NCT03900429 and MAESTRO-NAFLD-1 NCT04197479 are 52 week Phase 3 registrational double blind placebo controlled clinical trials to study the effect of resmetirom in more than 2,000 NASH patients. A goal of MAESTRO-NAFLD-1, a 1,200 patient “real life” NASH study is to identify non-invasive markers that correlate with patient response to resmetirom treatment. The 169 patient, 100 mg open label (OL) arm completed the 52 week study in July 2021.
Eligibility required at least 3 metabolic risk factors (Metabolic syndrome), fibroscan kilopascals (kPa) consistent with ≥F1 fibrosis stage, and MRI-PDFF≥8%. The primary and key secondary endpoints of MAESTRO-NAFLD-1 including safety, relative percent reduction of MRI-PDFF (week 16), LDL cholesterol (LDL-C) (week 24), apolipoprotein B and triglycerides, fibroscan and 52 week endpoints were analyzed in the OL arm.

[4] = cirrhotic NASH patients with PDFF≤5% at baseline, week 16

For `CC(C)c1cc(Oc2c(Cl)cc(-n3nc(C#N)c(=O)[nH]c3=O)cc2Cl)n[nH]c1=O` [resmetirom, 2-(3,5-dichloro-4-((5-isopropyl-6-oxo-1,6-dihydropyridazin-3-yl)oxy)phenyl)-3,5-dioxo-2,3,4,5-tetrahydro-1,2,4-triazine-6-carbonitrile], the LV reduction ([1]; 12 weeks, p<0.0001 vs placebo) was −18.6%, the “liver fat reduction (MRI-PDFF)” value ([1]; 36-week Phase 2, compared with placebo, associated with NASH resolution on liver biopsy) was “statistically significant liver fat reduction” and the LV reduction ([1]; 36 weeks, p<0.0001 vs placebo) was −20.5%. For the same compound, the “percentage of patients with ≥15% reduction in liver volume” value ([1]; Week 12, p<0.0001 vs placebo) was 69.2%, the “week 12 imaging response in patients who had NASH resolution and/or fibrosis reduction on biopsy at week 36” value ([1]; all such resmetirom treated patients) was “PDFF reduction ≥30% and/or LV reduction of ≥15%” and the safety and tolerability ([2]; 80-100 mg daily up to 52 weeks) was “safe and well-tolerated”. The “fibroscan CAP change” value ([2]; 80-100 mg daily, week 52, p<0.0001) was −42 units, the “fibroscan kPa change” value ([2]; 80-100 mg daily, week 52, p=0.02) was −7.6 kPa and the BP reduction ([2]; NASH cirrhotic arm) was 4-5 mm. For the same compound, the “LV mean % CFB” value [2, 4] was −16.3%, the “PDFF mean % CFB” value [2, 4] was −2.5% and the ApoB reduction ([2]; independent of cirrhosis stage) was 20%. For the same compound, the LDL-C reduction ([2]; independent of cirrhosis stage) was 20%, the “Lp (a) reduction” value ([2]; independent of cirrhosis stage) was 30% and the triglycerides reduction ([2]; independent of cirrhosis stage) was 21%. For the same compound, the GGT change ([2]; p=0.04) was −27%, the “PDFF lowered by” value ([2]; patients with baseline PDFF>5%, p<0.0057) was 37% and the “MRE lowered by” value ([2]; week 52) was 0.68 kPa. The “patients with MRE reduction of ≥15%” value ([2]; week 52) was 34%, the “patients with ≥15% reduction in LV” value ([2]; week 52, independent of baseline cirrhosis severity) was 73% and the “ELF (inflammatory and fibrosis biomarker)” value ([3]; 100 mg OL arm) was “Significant reductions”. The “LV reduction relative to that predicted by % reduction in MRI-PDFF” value ([3]; 100 mg OL arm) was 2-3 fold, the “M30 (inflammatory and fibrosis biomarker)” value ([3]; 100 mg OL arm) was “Significant reductions” and the adiponectin ([3]; 100 mg OL arm) was “increase”. For the same compound, the “reverse T3 (inflammatory and fibrosis biomarker)” value ([3]; 100 mg OL arm) was “Significant reductions”, the LDL-C reduction ([3]; 100 mg OL arm, p<0.0001) was −22% and the apolipoprotein-B reduction ([3]; 100 mg OL arm, p<0.0001) was −24%. The triglycerides reduction ([3]; 100 mg OL arm, p<0.0001) was −24%, the “blood pressure (systolic, diastolic) reduction” value ([3]; 100 mg OL arm, p=0.02) was about 2 mmHg and the “patients with weight loss ≥5%” value ([3]; 100 mg OL arm, linked to resmetirom exposure (SHBG)) was about 25%. For the same compound, the safety ([3]; 100 mg per day up to 52 weeks) was “No safety flags were identified”, the “liver volume (LV) reduction” value ([3]; 100 mg, week 52, p<0.0001) was −23% and the “bone mineral density (DEXA)” value ([3]; 52 weeks) was “unchanged”. The “fibroscan CAP change relative to baseline” value ([3]; week 52, p<0.0001) was −39 (4.6), the “fibroscan VCTE change relative to baseline” value ([3]; week 52, p<0.0001) was −1.87 and the “fibroscan VCTE percent change relative to baseline” value ([3]; week 52, p<0.0001) was −20%. For the same compound, the “MRE change relative to baseline” value ([3]; week 52, p=0.03) was −0.34.
